Test results published in PubChem BioAssay AID1918935 (Molecular Pharmacology Branch, DTP, NCI, 2023).

Tested on: 324938-238-R-J1-PDC complex spheroid viability
Test: Anticancer human tumor 324938-238-R-J1-PDC patient-derived bladder carcinoma cell line growth inhibition
Conditions: for IC50: curve of first compound; for viability, T/C: stronger effect = lower value
Summary of the method: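 Drug combinations with the LSD1 inhibitor iadademstat tested on tumor cells co-cultured as spheroids with endothelial cells and mesenchymal stem cells. Concentrations descended in half-log increments from clinical Cmax or 10 microM.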

[1] = second compound 0.1 µM, first compound 0.000316 µM
[2] = second compound 0.1 µM, first compound 0.001 µM
[3] = second compound 0.1 µM, first compound 0.00316 µM
[4] = second compound 0.1 µM, first compound 0.01 µM
[5] = second compound 0.1 µM, first compound 0.0316 µM
[6] = second compound 0.1 µM, first compound 0.1 µM
[7] = second compound 0.316 µM, first compound 0.000316 µM
[8] = second compound 0.316 µM, first compound 0.001 µM
[9] = second compound 0.316 µM, first compound 0.00316 µM
[10] = second compound 0.316 µM, first compound 0.01 µM
[11] = second compound 0.316 µM, first compound 0.0316 µM
[12] = second compound 0.316 µM, first compound 0.1 µM
[13] = second compound 1 µM, first compound 0.000316 µM
[14] = second compound 1 µM, first compound 0.001 µM
[15] = second compound 1 µM, first compound 0.00316 µM
[16] = second compound 1 µM, first compound 0.01 µM
[17] = second compound 1 µM, first compound 0.0316 µM
[18] = second compound 1 µM, first compound 0.1 µM
[19] = second compound 3.16 µM, first compound 0.000316 µM
[20] = second compound 3.16 µM, first compound 0.001 µM
[21] = second compound 3.16 µM, first compound 0.00316 µM
[22] = second compound 3.16 µM, first compound 0.01 µM
[23] = second compound 3.16 µM, first compound 0.0316 µM
[24] = second compound 3.16 µM, first compound 0.1 µM
[25] = second compound 10 µM, first compound 0.000316 µM
[26] = second compound 10 µM, first compound 0.001 µM
[27] = second compound 10 µM, first compound 0.00316 µM
[28] = second compound 10 µM, first compound 0.01 µM
[29] = second compound 10 µM, first compound 0.0316 µM
[30] = second compound 10 µM, first compound 0.1 µM
[31] = second compound 0.1 µM, first compound 0.00949 µM
[32] = second compound 0.1 µM, first compound 0.03 µM
[33] = second compound 0.1 µM, first compound 0.0949 µM
[34] = second compound 0.1 µM, first compound 0.3 µM
[35] = second compound 0.1 µM, first compound 0.949 µM
[36] = second compound 0.1 µM, first compound 3 µM
[37] = second compound 0.316 µM, first compound 0.00949 µM
[38] = second compound 0.316 µM, first compound 0.03 µM
[39] = second compound 0.316 µM, first compound 0.0949 µM
[40] = second compound 0.316 µM, first compound 0.3 µM
[41] = second compound 0.316 µM, first compound 0.949 µM
[42] = second compound 0.316 µM, first compound 3 µM
[43] = second compound 1 µM, first compound 0.00949 µM
[44] = second compound 1 µM, first compound 0.03 µM
[45] = second compound 1 µM, first compound 0.0949 µM
[46] = second compound 1 µM, first compound 0.3 µM
[47] = second compound 1 µM, first compound 0.949 µM
[48] = second compound 1 µM, first compound 3 µM
[49] = second compound 3.16 µM, first compound 0.00949 µM
[50] = second compound 3.16 µM, first compound 0.03 µM
[51] = second compound 3.16 µM, first compound 0.0949 µM
[52] = second compound 3.16 µM, first compound 0.3 µM
[53] = second compound 3.16 µM, first compound 0.949 µM
[54] = second compound 3.16 µM, first compound 3 µM
[55] = second compound 10 µM, first compound 0.00949 µM
[56] = second compound 10 µM, first compound 0.03 µM
[57] = second compound 10 µM, first compound 0.0949 µM
[58] = second compound 10 µM, first compound 0.3 µM
[59] = second compound 10 µM, first compound 0.949 µM
[60] = second compound 10 µM, first compound 3 µM
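Note: spheroids also contain HUVEC and human MSCs and agents combined with iadademstat; spheroids exposed to agents for 7 days before readout.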

## CC(C)CC(NC(=O)CNC(=O)c1cc(Cl)ccc1Cl)B1OC(=O)CC(CC(=O)O)(C(=O)O)O1 (stereo not given) + NC1CCC(NC2CC2c2ccccc2)CC1
Second compound 0.1 µM
  IC50: 2.3 nM
Second compound 0.316 µM
  IC50: 1.97 nM
Second compound 1 µM
  IC50: 1.98 nM
Second compound 3.16 µM
  IC50: 1.72 nM
Second compound 10 µM
  IC50: 1.75 nM
[1]
  viability, T/C: 78.5%
[2]
  viability, T/C: 76.7%
[3]
  viability, T/C: 39.9%
[4]
  viability, T/C: 5.51%
[5]
  viability, T/C: 0.09%
[6]
  viability, T/C: 0.14%
[7]
  viability, T/C: 88.5%
[8]
  viability, T/C: 68.9%
[9]
  viability, T/C: 37.8%
[10]
  viability, T/C: 6.24%
[11]
  viability, T/C: 0.11%
[12]
  viability, T/C: 0.14%
[13]
  viability, T/C: 87.1%
[14]
  viability, T/C: 62.5%
[15]
  viability, T/C: 44.2%
[16]
  viability, T/C: 5.29%
[17]
  viability, T/C: 0.06%
[18]
  viability, T/C: 0.13%
[19]
  viability, T/C: 80.2%
[20]
  viability, T/C: 65.2%
[21]
  viability, T/C: 33%
[22]
  viability, T/C: 3.57%
[23]
  viability, T/C: 0.05%
[24]
  viability, T/C: 0.16%
[25]
  viability, T/C: 78.3%
[26]
  viability, T/C: 76.2%
[27]
  viability, T/C: 22.7%
[28]
  viability, T/C: 2.57%
[29]
  viability, T/C: 0.13%
[30]
  viability, T/C: 0.21%

## COc1cc(Nc2ncc3c(n2)-c2ccc(Cl)cc2C(c2c(F)cccc2OC)=NC3)ccc1C(=O)O + NC1CCC(NC2CC2c2ccccc2)CC1
Second compound 0.1 µM
  IC50: 20.8 nM
Second compound 0.316 µM
  IC50: 18.8 nM
Second compound 1 µM
  IC50: 18.5 nM
Second compound 3.16 µM
  IC50: 15.4 nM
Second compound 10 µM
  IC50: 20.7 nM
[3]
  viability, T/C: 75.9%
[4]
  viability, T/C: 67.5%
[5]
  viability, T/C: 39.9%
[6]
  viability, T/C: 23%
Second compound 0.1 µM, first compound 0.316 µM
  viability, T/C: 20.4%
Second compound 0.1 µM, first compound 1 µM
  viability, T/C: 17.9%
[9]
  viability, T/C: 79.8%
[10]
  viability, T/C: 65.7%
[11]
  viability, T/C: 37.4%
[12]
  viability, T/C: 20.5%
Second compound 0.316 µM, first compound 0.316 µM
  viability, T/C: 18.3%
Second compound 0.316 µM, first compound 1 µM
  viability, T/C: 20.9%
[15]
  viability, T/C: 73.3%
[16]
  viability, T/C: 63.5%
[17]
  viability, T/C: 38.5%
[18]
  viability, T/C: 19.6%
Second compound 1 µM, first compound 0.316 µM
  viability, T/C: 21.9%
Second compound 1 µM, first compound 1 µM
  viability, T/C: 19.4%
[21]
  viability, T/C: 74.2%
[22]
  viability, T/C: 56.1%
[23]
  viability, T/C: 39.9%
[24]
  viability, T/C: 24.9%
Second compound 3.16 µM, first compound 0.316 µM
  viability, T/C: 21.7%
Second compound 3.16 µM, first compound 1 µM
  viability, T/C: 21.2%
[27]
  viability, T/C: 70.7%
[28]
  viability, T/C: 65.3%
[29]
  viability, T/C: 40%
[30]
  viability, T/C: 31%
Second compound 10 µM, first compound 0.316 µM
  viability, T/C: 22.7%
Second compound 10 µM, first compound 1 µM
  viability, T/C: 23.1%

## Cn1ncnc1C1c2n[nH]c(=O)c3cc(F)cc(c23)NC1c1ccc(F)cc1 (stereo not given) + NC1CCC(NC2CC2c2ccccc2)CC1
Second compound 0.1 µM
  IC50: > 100 nM
Second compound 0.316 µM
  IC50: > 100 nM
Second compound 1 µM
  IC50: > 100 nM
Second compound 3.16 µM
  IC50: 79.7 nM
Second compound 10 µM
  IC50: 73.8 nM
[1]
  viability, T/C: 75.7%
[2]
  viability, T/C: 81.6%
[3]
  viability, T/C: 66.8%
[4]
  viability, T/C: 64.1%
[5]
  viability, T/C: 63.1%
[6]
  viability, T/C: 50.8%
[7]
  viability, T/C: 95%
[8]
  viability, T/C: 86.9%
[9]
  viability, T/C: 73.8%
[10]
  viability, T/C: 66.3%
[11]
  viability, T/C: 65.4%
[12]
  viability, T/C: 55.8%
[13]
  viability, T/C: 70.3%
[14]
  viability, T/C: 71.1%
[15]
  viability, T/C: 77.2%
[16]
  viability, T/C: 73%
[17]
  viability, T/C: 59.8%
[18]
  viability, T/C: 52.6%
[19]
  viability, T/C: 68.1%
[20]
  viability, T/C: 77.6%
[21]
  viability, T/C: 74.7%
[22]
  viability, T/C: 66.8%
[23]
  viability, T/C: 58.4%
[24]
  viability, T/C: 48.1%
[25]
  viability, T/C: 66.2%
[26]
  viability, T/C: 72.7%
[27]
  viability, T/C: 71.8%
[28]
  viability, T/C: 65%
[29]
  viability, T/C: 54.7%
[30]
  viability, T/C: 48.3%

## NS(=O)(=O)OCC1CC(n2ccc3c(NC4CCc5ccccc54)ncnc32)CC1O (stereo not given) + NC1CCC(NC2CC2c2ccccc2)CC1
Second compound 0.1 µM
  IC50: 336 nM
Second compound 0.316 µM
  IC50: 336 nM
Second compound 1 µM
  IC50: 390 nM
Second compound 3.16 µM
  IC50: 309 nM
Second compound 10 µM
  IC50: 323 nM
[31]
  viability, T/C: 81.7%
[32]
  viability, T/C: 78.5%
[33]
  viability, T/C: 84.7%
[34]
  viability, T/C: 54.2%
[35]
  viability, T/C: 11.7%
[36]
  viability, T/C: 11.9%
[37]
  viability, T/C: 86.5%
[38]
  viability, T/C: 88.1%
[39]
  viability, T/C: 79.9%
[40]
  viability, T/C: 54.7%
[41]
  viability, T/C: 14.3%
[42]
  viability, T/C: 11.5%
[43]
  viability, T/C: 79.2%
[44]
  viability, T/C: 84.3%
[45]
  viability, T/C: 82.4%
[46]
  viability, T/C: 60.1%
[47]
  viability, T/C: 15.7%
[48]
  viability, T/C: 15.9%
[49]
  viability, T/C: 77.6%
[50]
  viability, T/C: 74.5%
[51]
  viability, T/C: 83.3%
[52]
  viability, T/C: 50.9%
[53]
  viability, T/C: 15.5%
[54]
  viability, T/C: 15.8%
[55]
  viability, T/C: 86.3%
[56]
  viability, T/C: 72.8%
[57]
  viability, T/C: 79.9%
[58]
  viability, T/C: 52.2%
[59]
  viability, T/C: 16.3%
[60]
  viability, T/C: 13.3%

## O=C(C=Cc1cccc(S(=O)(=O)Nc2ccccc2)c1)NO + NC1CCC(NC2CC2c2ccccc2)CC1
Second compound 0.1 µM
  IC50: 103 nM
Second compound 0.316 µM
  IC50: 101 nM
Second compound 1 µM
  IC50: 41.7 nM
Second compound 3.16 µM
  IC50: 47.2 nM
Second compound 10 µM
  IC50: 10.4 nM
[31]
  viability, T/C: 68%
[32]
  viability, T/C: 59.9%
[33]
  viability, T/C: 51.5%
[34]
  viability, T/C: 37.4%
[35]
  viability, T/C: 26.7%
[36]
  viability, T/C: 7.18%
[37]
  viability, T/C: 61.6%
[38]
  viability, T/C: 63.2%
[39]
  viability, T/C: 50.4%
[40]
  viability, T/C: 34.6%
[41]
  viability, T/C: 25.9%
[42]
  viability, T/C: 5.69%
[43]
  viability, T/C: 64.6%
[44]
  viability, T/C: 49.9%
[45]
  viability, T/C: 40.8%
[46]
  viability, T/C: 32.1%
[47]
  viability, T/C: 26%
[48]
  viability, T/C: 3.87%
[49]
  viability, T/C: 65.3%
[50]
  viability, T/C: 53.5%
[51]
  viability, T/C: 40%
[52]
  viability, T/C: 33.8%
[53]
  viability, T/C: 24.7%
[54]
  viability, T/C: 4.61%
[55]
  viability, T/C: 52.7%
[56]
  viability, T/C: 47.2%
[57]
  viability, T/C: 42.2%
[58]
  viability, T/C: 34.4%
[59]
  viability, T/C: 30.8%
[60]
  viability, T/C: 3.5%
